The values that follow come from ChEMBL document CHEMBL5331046, “Disulfiram and dithiocarbamate analogues demonstrate promising antischistosomal effects” (Eur J Med Chem, 2022).

In data set [1] the test system is Schistosoma mansoni. Put plainly: Antischistosomal activity against Schistosoma mansoni couples at 100 uM measured upto 72 hrs by bright field microscopy. The data set is classed as functional, organism-based.
In data set [2] the test system is Schistosoma mansoni. Put plainly: Antischistosomal activity against Schistosoma mansoni couples at 25 uM measured upto 72 hrs by bright field microscopy. The data set is classed as functional, organism-based.
For data set [3], the system named is Schistosoma mansoni. The data set is described as follows: Antischistosomal activity against Schistosoma mansoni couples at 10 uM measured upto 72 hrs by bright field microscopy. The data set is classed as functional, organism-based.
Data set [4] has as its system Schistosoma mansoni. The data set is described as follows: Antischistosomal activity against Schistosoma mansoni couples assessed as loss of internal structures at <=10 uM measured upto 72 hrs by bright field microscopy. The data set is classed as functional, organism-based.
The test system of data set [5] is Schistosoma mansoni. Put plainly: Antischistosomal activity against Schistosoma mansoni couples assessed as loss of internal structures at 10 uM measured upto 72 hrs by bright field microscopy. The data set is classed as functional, organism-based.
Data set [6] relates to HepG2. The data set is described as follows: Cytotoxicity against human HepG2 cells assessed as reduction in cell vaibility at 100 uM by WST-1 assay. The data set is classed as toxicity, cell-based. The note with it: hepg2, 100 µM.
The test system of data set [7] is Schistosoma mansoni. The data set is described as follows: Antischistosomal activity against Schistosoma mansoni couples assessed as gut dilatations at <=10 uM measured upto 72 hrs by bright field microscopy. The data set is classed as functional, organism-based.
The subject of data set [8] is Schistosoma mansoni. The data set is described as follows: Antischistosomal activity against Schistosoma mansoni couples assessed as reduction in parasite motility at <=10 uM measured upto 72 hrs by bright field microscopy. The data set is classed as functional. Further details: scale not given: the % may be the effect or the level left. The settings on record: up to 10 µM.

Data set [9] deals with Schistosoma mansoni. The data set is described as follows: Antischistosomal activity against Schistosoma mansoni couples assessed as gut dilatations at 10 uM measured upto 72 hrs by bright field microscopy. The data set is classed as functional, organism-based.
Data set [10] concerns Schistosoma mansoni. Put plainly: Antischistosomal activity against Schistosoma mansoni couples assessed as tegument damage at 10 uM measured upto 72 hrs by bright field microscopy. The data set is classed as functional, organism-based.
Data set [11] has as its system Schistosoma mansoni. The data set is described as follows: Antischistosomal activity against Schistosoma mansoni couples assessed as inhibition of eggs production at 15 uM measured upto 72 hrs by bright field microscopy. Details: scale not given: the % may be the effect or the level left. The data set is classed as functional.
Data set [12] has as its system LS174T. The data set is described as follows: Cytotoxicity against human LS174T cells assessed as reduction in cell viability at 100 uM by WST-1 assay. The data set is classed as toxicity, cell-based.
Data set [13] concerns Schistosoma mansoni. Put plainly: Antischistosomal activity against Schistosoma mansoni couples assessed as decrease in parasite motility at 15 uM measured upto 72 hrs by bright field microscopy. Further details: scale not given: the % may be the effect or the level left. The data set is classed as functional.
Data set [14] concerns Schistosoma mansoni. The data set is described as follows: Antischistosomal activity against Schistosoma mansoni couples assessed as tegument damage at <=10 uM measured upto 72 hrs by bright field microscopy. The data set is classed as functional, organism-based.
In data set [15] the test system is Schistosoma mansoni. Put plainly: Antischistosomal activity against Schistosoma mansoni couples assessed as induction of phenotypes at 10 uM measured upto 72 hrs by bright field microscopy. The data set is classed as functional, organism-based.
The subject of data set [16] is Schistosoma mansoni. Put plainly: Antischistosomal activity against Schistosoma mansoni couples assessed as decrease in parasite motility at 10 uM measured upto 72 hrs by bright field microscopy. The data set is classed as functional, organism-based.
The test system of data set [17] is Schistosoma mansoni. Put plainly: Antischistosomal activity against Schistosoma mansoni couples assessed as decrease in pairing stability at 15 uM measured upto 72 hrs by bright field microscopy. The data set is classed as functional. Details: scale not given: the % may be the effect or the level left.
For data set [18], the system named is Schistosoma mansoni. The data set is described as follows: Antischistosomal activity against Schistosoma mansoni couples assessed as decrease in parasite vitality at 15 uM measured upto 72 hrs by bright field microscopy. The data set is classed as functional. Further details: scale not given: the % may be the effect or the level left.
For data set [19], the system named is HepG2. The data set is described as follows: Cytotoxicity against human HepG2 cells assessed as reduction in cell viability upto 50 uM by WST-1 assay. The data set is classed as toxicity, cell-based. The note with it: hepg2, 50 µM.
Data set [20] concerns Schistosoma mansoni. Put plainly: Antischistosomal activity against Schistosoma mansoni couples assessed as intestinal dilations and tegument damage at 50 uM measured upto 72 hrs by bright field microscopy. The data set is classed as functional, organism-based.
For data set [21], the system named is Schistosoma mansoni. The data set is described as follows: Antischistosomal activity against Schistosoma mansoni couples assessed as tegument damage at 50 uM measured upto 72 hrs by bright field microscopy. The data set is classed as functional, organism-based.
Data set [22] has as its system Schistosoma mansoni. The data set is described as follows: Antischistosomal activity against Schistosoma mansoni couples assessed as gut dilations at 50 uM measured upto 72 hrs by bright field microscopy. The data set is classed as functional, organism-based.
Data set [23] relates to Schistosoma mansoni. Put plainly: Antischistosomal activity against Schistosoma mansoni couples assessed as reduction in pairing stability at 50 uM measured upto 72 hrs by bright field microscopy. The data set is classed as functional, organism-based.
The test system of data set [24] is LS174T. The data set is described as follows: Cytotoxicity against human LS174T cells assessed as reduction in cell vaibility upto 50 uM by WST-1 assay. The data set is classed as toxicity, cell-based.
For data set [25], the system named is Schistosoma mansoni. The data set is described as follows: Antischistosomal activity against Schistosoma mansoni couples assessed as inhibition of eggs production at 50 uM measured upto 72 hrs by bright field microscopy. The data set is classed as functional, organism-based.
For data set [26], the system named is Schistosoma mansoni. Put plainly: Antischistosomal activity against Schistosoma mansoni couples assessed as edematous swelling of gut at 25 uM measured upto 72 hrs by bright field microscopy. The data set is classed as functional, organism-based.
In data set [27] the test system is Schistosoma mansoni. The data set is described as follows: Antischistosomal activity against Schistosoma mansoni couples assessed as decrease in parasite motility at 25 uM measured upto 72 hrs by bright field microscopy. The data set is classed as functional. Further details: scale not given: the % may be the effect or the level left.
Data set [28] deals with Schistosoma mansoni. The data set is described as follows: Antischistosomal activity against Schistosoma mansoni couples assessed as decrease in parasite vitality at 10 uM measured upto 72 hrs by bright field microscopy. The data set is classed as functional.
For data set [29], the system named is HepG2. The data set is described as follows: Cytotoxicity against human HepG2 cells assessed as reduction in cell vaibility at 25 uM by WST-1 assay. The data set is classed as toxicity, cell-based. The note with it: hepg2, 25 µM.
Data set [30] deals with LS174T. Put plainly: Cytotoxicity against human LS174T cells assessed as reduction in cell vaibility at 25 uM by WST-1 assay. The data set is classed as toxicity, cell-based.
In data set [31] the test system is Schistosoma mansoni. The data set is described as follows: Antischistosomal activity against Schistosoma mansoni couples assessed as dead worms at 25 uM measured upto 72 hrs by bright field microscopy. The data set is classed as functional.
In data set [32] the test system is Schistosoma mansoni. The data set is described as follows: Antischistosomal activity against Schistosoma mansoni couples assessed as inhibition of eggs production at 10 uM measured upto 72 hrs by bright field microscopy. The data set is classed as functional, organism-based.
For data set [33], the system named is Schistosoma mansoni. The data set is described as follows: Antischistosomal activity against Schistosoma mansoni couples assessed as reduction in pairing stability at 10 uM measured upto 72 hrs by bright field microscopy. The data set is classed as functional, organism-based.
In data set [34] the test system is LS174T. The data set is described as follows: Cytotoxicity against human LS174T cells assessed as reduction in cell vaibility at 50 uM by WST-1 assay. The data set is classed as toxicity, cell-based.
Data set [35] has as its system Schistosoma mansoni. Put plainly: Antischistosomal activity against Schistosoma mansoni couples assessed as reduction in pairing stability at 100 uM measured upto 72 hrs by bright field microscopy. The data set is classed as functional. Details: scale not given: the % may be the effect or the level left.
The subject of data set [36] is HepG2. The data set is described as follows: Cytotoxicity against human HepG2 cells assessed as reduction in cell vaibility at 50 uM by WST-1 assay. The data set is classed as toxicity, cell-based. The note with it: hepg2, 50 µM.
Data set [37] deals with Schistosoma mansoni. Put plainly: Antischistosomal activity against Schistosoma mansoni couples assessed as decrease in parasite motility at 100 uM measured upto 72 hrs by bright field microscopy. The data set is classed as functional. Further details: scale not given: the % may be the effect or the level left.
For data set [38], the system named is Schistosoma mansoni. Put plainly: Antischistosomal activity against Schistosoma mansoni couples assessed as inhibition of eggs production at 100 uM measured upto 72 hrs by bright field microscopy. The data set is classed as functional. Details: scale not given: the % may be the effect or the level left.

The structures appear in SMILES notation. Activity calls are given as the source filed them. The calls are words filed in the database; no cut-off is given here.

In the case of `O=[N+]([O-])c1ccc(CSC(=S)N2CCN(CCO)CC2)cc1`, the outcome in [1] and in [2] was Active. Moreover, in data set [3], the outcome was inactive.

As to `O=[N+]([O-])c1ccc(CSC(=S)N2CCN(S(=O)(=O)c3ccccc3)CC2)cc1`, the outcome in [4], in data set [7] and in data set [14] was inactive. Moreover, the result in data set [5], in [9], in data set [10], in data set [15] and in data set [16] was Active. For the same molecule, the Activity entry in data set [6] is listed as “Toxic”; in data set [8], 50%; in [11] it was 40%; in [12], “Toxic”; in data set [13], 50%; in data set [17] it was 20%. The Activity in [18] is given as 90%.

Regarding `CCN(CC)C(=S)SCc1ccc(SC)cc1`, the Activity result in [19] and in [24] was “Non-Toxic” each time. For the same molecule, the result in data set [20], in data set [21], in [22], in [23] and in data set [25] was Active.

`CC(C)NC(=O)CN1CCN(C(=S)SCc2ccc([N+](=O)[O-])cc2)CC1`: the outcome in data set [1] and in [2] was Active. The outcome in [3] was inactive.

For the molecule `C[C@H](N)C(=O)N1CCN(C(=S)SCc2ccc([N+](=O)[O-])cc2)CC1.Cl`, the Activity entry in data set [6] was “Toxic”; in data set [27] it was 65%; in data set [29], “Toxic”; in data set [12], “Toxic”; in data set [30] it was “Toxic”; in data set [31], “<=25%”. The result in data set [1], in data set [26], in data set [28], in [32] and in [33] was Active. Further, the result in data set [16] was inactive.

Turning to `CCN(CC)C(=S)SCc1ccccc1`, the Activity in data set [27] was 30%; in [34], “Toxic”; in [35] it was 100%; in [36], “Toxic”; in data set [37], 50%; in data set [38] it was 100%.
